Reference: ChEMBL document CHEMBL5241118, “4-Aminopyrazolopyrimidine scaffold and its deformation in the design of tyrosine and serine/threonine kinase inhibitors in medicinal chemistry” (RSC Med Chem, 2022)
Each block holds one compound with its values, some of them ahead of it.

Tests used:
[1] = target: Phosphatidylinositol 4,5-bisphosphate 3-kinase catalytic subunit beta isoform (Homo sapiens, UniProt P42338); test: Binding affinity to PI3Kbeta (unknown origin) assessed as dissociation constant
Chain of Phosphatidylinositol 4,5-bisphosphate 3-kinase catalytic subunit beta isoform (P42338 whole entry, canonical isoform): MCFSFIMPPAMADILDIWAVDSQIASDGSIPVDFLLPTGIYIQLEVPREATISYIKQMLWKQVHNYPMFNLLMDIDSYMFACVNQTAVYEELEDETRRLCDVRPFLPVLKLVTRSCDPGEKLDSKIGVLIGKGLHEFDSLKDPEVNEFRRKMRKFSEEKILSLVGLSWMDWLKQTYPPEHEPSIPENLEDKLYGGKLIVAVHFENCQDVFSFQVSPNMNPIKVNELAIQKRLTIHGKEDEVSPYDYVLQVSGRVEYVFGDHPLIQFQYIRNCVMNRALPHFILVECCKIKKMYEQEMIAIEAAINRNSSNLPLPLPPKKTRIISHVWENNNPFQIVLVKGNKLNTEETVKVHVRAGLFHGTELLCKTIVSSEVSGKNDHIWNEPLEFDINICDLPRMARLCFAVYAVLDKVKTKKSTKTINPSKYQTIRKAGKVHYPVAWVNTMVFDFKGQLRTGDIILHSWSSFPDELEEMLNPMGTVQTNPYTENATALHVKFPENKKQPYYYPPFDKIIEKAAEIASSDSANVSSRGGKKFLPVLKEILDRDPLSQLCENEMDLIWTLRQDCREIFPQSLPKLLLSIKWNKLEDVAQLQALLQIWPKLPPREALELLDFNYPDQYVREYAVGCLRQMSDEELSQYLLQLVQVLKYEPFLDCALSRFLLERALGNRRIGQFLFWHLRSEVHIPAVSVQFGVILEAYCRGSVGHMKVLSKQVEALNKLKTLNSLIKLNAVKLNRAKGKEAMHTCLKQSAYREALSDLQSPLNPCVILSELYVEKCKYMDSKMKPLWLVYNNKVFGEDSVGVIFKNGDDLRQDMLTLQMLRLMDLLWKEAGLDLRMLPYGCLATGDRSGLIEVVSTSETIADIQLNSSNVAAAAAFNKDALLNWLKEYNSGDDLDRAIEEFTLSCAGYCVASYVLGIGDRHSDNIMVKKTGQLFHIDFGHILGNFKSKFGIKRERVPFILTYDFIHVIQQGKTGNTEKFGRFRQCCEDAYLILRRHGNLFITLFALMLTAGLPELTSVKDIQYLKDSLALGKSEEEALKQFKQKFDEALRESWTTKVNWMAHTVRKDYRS

[2] = target: Phosphatidylinositol 4,5-bisphosphate 3-kinase catalytic subunit alpha isoform (Homo sapiens, UniProt P42336); test: Binding affinity to PI3Kalpha (unknown origin) assessed as dissociation constant
Chain of Phosphatidylinositol 4,5-bisphosphate 3-kinase catalytic subunit alpha isoform (P42336 whole entry, canonical isoform): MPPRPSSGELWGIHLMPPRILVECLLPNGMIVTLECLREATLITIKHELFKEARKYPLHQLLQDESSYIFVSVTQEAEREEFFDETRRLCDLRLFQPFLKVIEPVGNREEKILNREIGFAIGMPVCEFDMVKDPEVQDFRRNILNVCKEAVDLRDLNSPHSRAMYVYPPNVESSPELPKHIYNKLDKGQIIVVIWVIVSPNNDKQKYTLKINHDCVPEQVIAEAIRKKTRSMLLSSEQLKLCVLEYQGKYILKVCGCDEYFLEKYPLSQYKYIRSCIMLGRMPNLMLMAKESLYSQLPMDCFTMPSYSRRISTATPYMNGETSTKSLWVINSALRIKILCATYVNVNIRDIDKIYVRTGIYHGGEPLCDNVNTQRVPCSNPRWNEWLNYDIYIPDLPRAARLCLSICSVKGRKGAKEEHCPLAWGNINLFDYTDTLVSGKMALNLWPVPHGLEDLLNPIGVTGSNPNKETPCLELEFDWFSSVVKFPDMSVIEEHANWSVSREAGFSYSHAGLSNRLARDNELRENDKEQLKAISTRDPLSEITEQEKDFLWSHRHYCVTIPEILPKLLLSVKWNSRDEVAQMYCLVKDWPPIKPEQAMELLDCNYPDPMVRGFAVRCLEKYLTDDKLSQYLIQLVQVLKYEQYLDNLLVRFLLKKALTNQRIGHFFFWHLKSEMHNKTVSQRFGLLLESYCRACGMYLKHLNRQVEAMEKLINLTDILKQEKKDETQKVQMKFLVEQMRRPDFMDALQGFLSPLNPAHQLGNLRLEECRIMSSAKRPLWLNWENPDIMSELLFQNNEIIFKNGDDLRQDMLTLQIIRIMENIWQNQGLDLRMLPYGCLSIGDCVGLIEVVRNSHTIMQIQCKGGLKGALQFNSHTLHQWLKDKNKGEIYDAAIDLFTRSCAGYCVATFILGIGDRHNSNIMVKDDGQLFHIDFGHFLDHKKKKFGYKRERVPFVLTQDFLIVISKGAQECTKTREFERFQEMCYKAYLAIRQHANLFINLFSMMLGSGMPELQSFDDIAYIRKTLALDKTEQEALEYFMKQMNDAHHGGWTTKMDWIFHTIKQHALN

[3] = target: Phosphatidylinositol 4,5-bisphosphate 3-kinase catalytic subunit gamma isoform (Homo sapiens, UniProt P48736); test: Binding affinity to PI3Kgamma (unknown origin) assessed as dissociation constant
Chain of Phosphatidylinositol 4,5-bisphosphate 3-kinase catalytic subunit gamma isoform (P48736 whole entry, canonical isoform): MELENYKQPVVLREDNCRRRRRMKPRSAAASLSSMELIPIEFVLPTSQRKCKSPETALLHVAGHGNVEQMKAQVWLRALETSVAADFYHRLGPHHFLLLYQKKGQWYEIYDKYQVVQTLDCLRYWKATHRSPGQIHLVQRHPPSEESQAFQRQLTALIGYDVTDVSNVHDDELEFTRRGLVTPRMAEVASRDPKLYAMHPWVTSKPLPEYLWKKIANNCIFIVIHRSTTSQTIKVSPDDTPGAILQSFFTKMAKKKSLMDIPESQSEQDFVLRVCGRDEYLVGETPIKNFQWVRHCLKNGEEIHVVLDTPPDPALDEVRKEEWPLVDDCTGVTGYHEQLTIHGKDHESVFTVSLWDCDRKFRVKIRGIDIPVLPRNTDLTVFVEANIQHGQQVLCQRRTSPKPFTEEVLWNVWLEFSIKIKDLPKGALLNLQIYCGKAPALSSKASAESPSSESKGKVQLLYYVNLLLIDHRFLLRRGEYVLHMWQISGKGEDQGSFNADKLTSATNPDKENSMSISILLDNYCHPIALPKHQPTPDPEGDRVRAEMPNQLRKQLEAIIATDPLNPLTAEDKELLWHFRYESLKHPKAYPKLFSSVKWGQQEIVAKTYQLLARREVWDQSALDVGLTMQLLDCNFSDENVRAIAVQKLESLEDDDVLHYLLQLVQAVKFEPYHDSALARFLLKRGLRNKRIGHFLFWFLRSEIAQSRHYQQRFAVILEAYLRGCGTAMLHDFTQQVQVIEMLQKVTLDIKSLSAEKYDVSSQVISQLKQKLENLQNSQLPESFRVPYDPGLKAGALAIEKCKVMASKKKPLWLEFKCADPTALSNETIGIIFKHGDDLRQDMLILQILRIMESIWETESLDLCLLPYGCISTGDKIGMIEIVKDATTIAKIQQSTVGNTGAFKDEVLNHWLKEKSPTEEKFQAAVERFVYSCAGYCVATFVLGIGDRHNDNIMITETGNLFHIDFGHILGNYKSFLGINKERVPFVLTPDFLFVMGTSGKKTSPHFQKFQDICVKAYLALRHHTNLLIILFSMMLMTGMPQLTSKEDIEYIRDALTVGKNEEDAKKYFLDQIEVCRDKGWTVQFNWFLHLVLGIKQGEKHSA

HBL = test: Antiproliferative activity against human HBL cells assessed as inhibition of cell growth; assay type: functional
[4] = target: Tyrosine-protein kinase Lyn (Homo sapiens, UniProt P07948); test: Inhibition of LYN (unknown origin)
Chain of Tyrosine-protein kinase Lyn (P07948 whole entry, the tested form may be a part): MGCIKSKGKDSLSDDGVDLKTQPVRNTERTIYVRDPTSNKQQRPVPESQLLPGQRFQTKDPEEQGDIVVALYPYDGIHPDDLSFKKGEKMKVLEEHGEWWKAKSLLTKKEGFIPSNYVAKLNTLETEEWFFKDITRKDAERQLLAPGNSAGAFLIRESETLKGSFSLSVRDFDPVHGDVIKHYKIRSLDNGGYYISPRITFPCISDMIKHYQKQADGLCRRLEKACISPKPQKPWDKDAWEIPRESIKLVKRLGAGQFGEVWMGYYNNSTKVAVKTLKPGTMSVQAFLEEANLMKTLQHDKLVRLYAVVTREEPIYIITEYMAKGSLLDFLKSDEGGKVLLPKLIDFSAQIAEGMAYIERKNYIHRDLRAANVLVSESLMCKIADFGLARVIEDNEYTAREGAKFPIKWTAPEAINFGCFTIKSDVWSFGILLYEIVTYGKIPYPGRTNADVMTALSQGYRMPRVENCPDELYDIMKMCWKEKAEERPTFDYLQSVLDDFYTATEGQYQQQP

[5] = target: Tyrosine-protein kinase Lck (Homo sapiens, UniProt P06239); test: Inhibition of His-tagged LCK (62 to 509 residues) (unknown origin) expressed in Sf9 insect cells at 10 uM using poly (Glu, Tyr) 4:1 as substrate incubated for 1 hr by spectrometric analysis
Chain of Tyrosine-protein kinase Lck (P06239 whole entry, the tested form may be a part): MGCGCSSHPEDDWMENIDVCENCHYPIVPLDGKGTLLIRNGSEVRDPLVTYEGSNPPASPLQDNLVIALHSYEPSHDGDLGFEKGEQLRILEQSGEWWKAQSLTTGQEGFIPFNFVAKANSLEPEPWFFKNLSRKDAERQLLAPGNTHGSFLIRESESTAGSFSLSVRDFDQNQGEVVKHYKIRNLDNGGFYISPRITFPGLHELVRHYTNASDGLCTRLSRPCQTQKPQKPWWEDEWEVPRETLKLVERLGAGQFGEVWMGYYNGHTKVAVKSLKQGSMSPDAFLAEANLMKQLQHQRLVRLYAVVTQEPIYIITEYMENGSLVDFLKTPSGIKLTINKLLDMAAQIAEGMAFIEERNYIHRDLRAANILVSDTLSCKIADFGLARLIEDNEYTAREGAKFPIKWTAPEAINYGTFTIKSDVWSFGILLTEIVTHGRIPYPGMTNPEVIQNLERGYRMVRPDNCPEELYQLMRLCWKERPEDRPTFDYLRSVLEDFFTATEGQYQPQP

[6] = target: Proto-oncogene tyrosine-protein kinase Src (Homo sapiens, UniProt P12931); test: Inhibition of Src kinase (unknown origin) phosphorylation at Tyr416/419 residues incubated for 24 hrs by Western blot analysis
Chain of Proto-oncogene tyrosine-protein kinase Src (P12931 2-536 limits assumed): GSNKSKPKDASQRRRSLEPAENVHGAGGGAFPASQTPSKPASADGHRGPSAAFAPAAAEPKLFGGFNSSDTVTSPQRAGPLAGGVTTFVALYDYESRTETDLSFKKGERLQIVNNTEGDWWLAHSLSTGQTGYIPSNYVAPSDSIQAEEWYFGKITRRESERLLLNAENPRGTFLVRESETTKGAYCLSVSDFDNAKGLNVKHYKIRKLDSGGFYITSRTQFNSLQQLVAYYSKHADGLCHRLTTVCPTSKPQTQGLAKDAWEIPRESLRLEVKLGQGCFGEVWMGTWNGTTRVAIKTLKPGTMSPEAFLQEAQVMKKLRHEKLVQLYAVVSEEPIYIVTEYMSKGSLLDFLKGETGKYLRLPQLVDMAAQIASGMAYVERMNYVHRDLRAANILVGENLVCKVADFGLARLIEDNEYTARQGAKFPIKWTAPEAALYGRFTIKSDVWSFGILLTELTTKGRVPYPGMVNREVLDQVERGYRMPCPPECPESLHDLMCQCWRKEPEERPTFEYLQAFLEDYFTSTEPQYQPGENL

MDA-MB-231 [7] = test: Antitumor activity against human MDA-MB-231 cells xenografted in athymic nude mouse assessed as the inhibition of tumor growth at 65 mg/kg, ip measured at 24 hrs post-dose relative to control; conditions: MDA-MB-231, 24 h, read-out: TGI
MDA-MB-231 [8] = test: Antitumor activity against human MDA-MB-231 cells xenografted in athymic nude mouse assessed as the inhibition of tumor growth at 25 mg/kg, ip administered twice daily for 14 days relative to control; assay type: functional; conditions: MDA-MB-231, 336 h, time 14 day, read-out: TGI

Structure (SMILES): CC(C)Oc1ccc(-c2nn([C@H](C)c3oc4ccc(F)cc4c(=O)c3-c3cccc(F)c3)c3ncnc(N)c23)cc1F
Kd [1]: > 10000 nM
Kd [2]: > 10000 nM
Kd [3]: > 1400 nM

Structure (SMILES): Nc1ncnc2c1c(-c1ccc(Oc3ccccc3)cc1)nn2[C@@H]1CCCN(C(=O)c2cn(CCOCCOCCOCCNc3cccc4c3C(=O)N(C3CCC(=O)NC3=O)C4=O)nn2)C1 (some centres undefined)
GI50 (HBL): 28 nM

IC50 [4]: < 3 nM
IC50 [5]: < 3 nM
IC50 [6]: 9 nM
Structure (SMILES): CN1CCN([C@H]2CC[C@H](n3cc(-c4ccc(Oc5ccccc5)cc4)c4c(N)ncnc43)CC2)CC1

Structure (SMILES): COc1cccc2cc(-c3nc([C@H]4CC[C@H](C(=O)O)CC4)n4ncnc(N)c34)[nH]c12 [OSI-027]
inhibition in vivo at 65 mg/kg (MDA-MB-231 [7]): 100%
inhibition in vivo at 25 mg/kg (MDA-MB-231 [8]): 90%
